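Grown in 96-well plates, cells were treated for 48 hours with each compound at five concentrations. Insufficient inhibition: endpoint recorded as highest concentration tested. GI50 = concentration required for 50% inhibition of growth.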 Calls of active or inactive are those of the source. Cut-off read from the data, not from the text of the source: active = GI50 up to about 1.1 µM and inactive = higher.

Among the test systems are NCI-H226; LOX IMVI; KM-20L2; M14; HOP-92; HOP-62; OVCAR-3; SNB-19; DLD-1; ACHN; UACC-62; SN12C; Malme-3M; CCRF-CEM; SF-295; RPMI-8226; SR; BT-549; DU-145; MCF7.
Holding throughout (assay): NCI-60 cell line screen, 48 h

Consider `CC1(C)CCCC2(C)C3C(O)CC2(C)C(O)C31` (centres undefined), for which the GI50 in the assay with NCI-H226 is > 100 µM (inactive); with LOX IMVI, > 100 µM (inactive); in the assay with KM-20L2 it was > 100 µM (inactive); with M14, > 100 µM (inactive); in the assay on HOP-92 it was > 10 µM (inactive); with HOP-62 it was > 100 µM (inactive). Further, the GI50 with OVCAR-3, in the assay with SNB-19, in the assay on DLD-1, with ACHN, in the assay with UACC-62 and in the assay with SN12C was > 100 µM (inactive) each time. Besides, the GI50 with Malme-3M, with CCRF-CEM and with SF-295 was > 100 µM (inactive) each time.

Consider `N#C/C(=C1\OC(=N)C(c2ccccc2)C1=O)c1ccccc1` (centres undefined), for which the GI50 was > 64.3 µM (inactive) in the assay on NCI-H226; 33.6 µM (inactive) with LOX IMVI; 98.6 µM (inactive) in the assay with KM-20L2; 24.4 µM (inactive) in the assay on M14; 33.8 µM (inactive) in the assay with HOP-92; > 100 µM (inactive) with HOP-62. For the same compound, the GI50 was 28.1 µM (inactive) with OVCAR-3; > 100 µM (inactive) with SNB-19; 22.9 µM (inactive) in the assay on RPMI-8226; 18.3 µM (inactive) with DLD-1; 16.3 µM (inactive) with ACHN; 22.2 µM (inactive) in the assay with UACC-62. For the same compound, the GI50 in the assay on SN12C was 35 µM (inactive); in the assay with Malme-3M it was 18.9 µM (inactive); in the assay with CCRF-CEM, 15.9 µM (inactive); with SF-295, > 100 µM (inactive).

`N#C/C(=C/c1ccc2c(c1)OCO2)C(=O)c1ccccc1`: the GI50 in the assay on KM-20L2, in the assay on M14, in the assay on HOP-62, in the assay on OVCAR-3, in the assay with SNB-19 and in the assay with RPMI-8226 was > 100 µM (inactive) each time. Moreover, the GI50 with DLD-1, with ACHN, in the assay on UACC-62, with SN12C, with Malme-3M and with CCRF-CEM was > 100 µM (inactive) throughout. The GI50 in the assay with SF-295 is > 100 µM (inactive).

As to `Cc1ccc(S(=O)(=O)N/N=C(/CC(=O)c2c(C)[n+]([O-])c3ccccc3[n+]2[O-])C(=O)Nc2ccc(C)c(C)c2)cc1`, the GI50 in the assay with NCI-H226 is > 100 µM (inactive); in the assay with KM-20L2, > 100 µM (inactive); in the assay with M14, > 100 µM (inactive); in the assay on HOP-62, > 100 µM (inactive); in the assay with OVCAR-3, 16.5 µM (inactive); in the assay on SNB-19, > 100 µM (inactive). Besides, the GI50 in the assay on RPMI-8226 is 29.6 µM (inactive); in the assay on DLD-1 it was > 100 µM (inactive); in the assay on ACHN, 25.1 µM (inactive); in the assay on UACC-62, 79.8 µM (inactive); with SN12C it was 34 µM (inactive); in the assay on Malme-3M it was > 100 µM (inactive). Moreover, the GI50 in the assay on SF-295 was > 100 µM (inactive).

As to `Cn1cc(C(=O)c2ccccc2)c2ccccc2c1=O`, the GI50 with LOX IMVI is > 100 µM (inactive); in the assay on M14 it was > 100 µM (inactive); in the assay with HOP-92 it was 62.8 µM (inactive); with HOP-62, 18.8 µM (inactive); in the assay on OVCAR-3, > 100 µM (inactive); in the assay on RPMI-8226, 94.2 µM (inactive). Besides, the GI50 was > 100 µM (inactive) in the assay with DLD-1; > 100 µM (inactive) in the assay with ACHN; 49.2 µM (inactive) in the assay with UACC-62; > 100 µM (inactive) with SN12C; > 100 µM (inactive) in the assay with Malme-3M; > 100 µM (inactive) with SR. Also, the results for the GI50 with CCRF-CEM and with SF-295 were > 100 µM (inactive) and 93.5 µM (inactive), respectively.

In the case of `O=C1c2ccccc2C2(O)N(c3ccccc3)C(=S)N(c3ccccc3)C12O` (centres undefined), the GI50 in the assay on NCI-H226, in the assay on LOX IMVI, with KM-20L2, in the assay with M14, in the assay with HOP-62 and in the assay on OVCAR-3 was > 100 µM (inactive) in each case. Also, the GI50 in the assay on SNB-19, in the assay on RPMI-8226, in the assay on DLD-1, with ACHN, with UACC-62 and with SN12C was > 100 µM (inactive) each time. The GI50 in the assay on Malme-3M, in the assay with CCRF-CEM and in the assay with SF-295 was > 100 µM (inactive) in each case.

On to `CC1(c2cccc(C3CC4(CCC3=O)OCCCCO4)c2)OCCO1` (centres undefined), for which the GI50 in the assay on NCI-H226, in the assay with LOX IMVI, with KM-20L2, in the assay on M14, in the assay on HOP-62 and in the assay with OVCAR-3 was > 100 µM (inactive) throughout. Besides, the GI50 in the assay with SNB-19, in the assay with RPMI-8226, with DLD-1, in the assay with ACHN, in the assay on UACC-62 and with SN12C was > 100 µM (inactive) in each case. Further, the GI50 in the assay on Malme-3M, in the assay with CCRF-CEM and in the assay on SF-295 was > 100 µM (inactive) each time.

Take `CS(=O)(=O)Nc1ccc(NCc2c[nH]c3ccc4ncccc4c23)cc1`: the GI50 was 26.2 µM (inactive) in the assay on NCI-H226; 26.4 µM (inactive) in the assay with LOX IMVI; 20.9 µM (inactive) in the assay with M14; 52.6 µM (inactive) in the assay with HOP-92; 36.5 µM (inactive) with HOP-62; 31.1 µM (inactive) in the assay with OVCAR-3. The GI50 was 49.1 µM (inactive) in the assay on SNB-19; 11 µM (inactive) in the assay with RPMI-8226; 30.3 µM (inactive) in the assay on BT-549; 20.6 µM (inactive) in the assay with ACHN; 26.1 µM (inactive) in the assay on DU-145; 15 µM (inactive) in the assay on UACC-62. Besides, the GI50 with SN12C is 25.8 µM (inactive); with Malme-3M it was 23.7 µM (inactive); with SR it was 13.3 µM (inactive); in the assay with CCRF-CEM, 18.8 µM (inactive); in the assay with SF-295, 24.2 µM (inactive); in the assay with MCF7, 23.1 µM (inactive).

Take `CCc1c(OC(C)=O)c2c(NC3OCC(OC(C)=O)C(OC(C)=O)C3OC(C)=O)nc(SC)nc2oc1=O` (centres undefined): the GI50 with NCI-H226, in the assay with LOX IMVI, with KM-20L2, in the assay with M14, with HOP-92 and in the assay with HOP-62 was > 100 µM (inactive) each time. For the same compound, the GI50 in the assay with OVCAR-3, with SNB-19, in the assay with RPMI-8226, in the assay with DLD-1, with ACHN and in the assay on UACC-62 was > 100 µM (inactive) in each case. Besides, the GI50 in the assay with SN12C, in the assay with Malme-3M, with CCRF-CEM and in the assay with SF-295 was > 100 µM (inactive) each time.

`COc1ccc(OC)c2cc(C3(C)SCCCS3)ccc12`: the GI50 was > 100 µM (inactive) in the assay with LOX IMVI; 81.7 µM (inactive) in the assay with KM-20L2; 65 µM (inactive) in the assay on M14; > 100 µM (inactive) in the assay with HOP-62; > 100 µM (inactive) in the assay on OVCAR-3; > 100 µM (inactive) with SNB-19. Also, the GI50 in the assay with RPMI-8226 is 69.3 µM (inactive); in the assay with DLD-1, > 100 µM (inactive); with ACHN it was > 100 µM (inactive); with UACC-62 it was > 100 µM (inactive); in the assay on SN12C, > 100 µM (inactive); in the assay on Malme-3M, > 100 µM (inactive). Further, the GI50 with CCRF-CEM is 71 µM (inactive); in the assay on SF-295, 78.2 µM (inactive).

Consider `COc1ncn(C2C=C(CO)C(O)C2O)c(=O)n1` (centres undefined), for which the GI50 in the assay on NCI-H226 is > 100 µM (inactive); with KM-20L2 it was > 100 µM (inactive); with M14, > 100 µM (inactive); in the assay with HOP-62 it was > 100 µM (inactive); in the assay on OVCAR-3, > 100 µM (inactive); with SNB-19 it was < 0.01 µM (active). In addition, the GI50 in the assay on RPMI-8226, in the assay with DLD-1, in the assay on ACHN, in the assay with UACC-62, in the assay on SN12C and in the assay with Malme-3M was > 100 µM (inactive) each time.

As to `CCN(CC)CCCNC(=O)c1ccc([N+](=O)[O-])cc1O`, the GI50 in the assay on NCI-H226, with LOX IMVI, in the assay on KM-20L2, with M14, in the assay with HOP-92 and with HOP-62 was > 100 µM (inactive) throughout. Further, the GI50 in the assay on OVCAR-3, in the assay on SNB-19, in the assay with DLD-1, in the assay with ACHN, in the assay on UACC-62 and in the assay on SN12C was > 100 µM (inactive) each time. The GI50 in the assay on Malme-3M, in the assay on CCRF-CEM and in the assay with SF-295 was > 100 µM (inactive) each time.

As to `COc1cccc2cc(C(=O)O)c(=O)oc12`, the GI50 in the assay with NCI-H226, with LOX IMVI, in the assay on M14, in the assay on HOP-92, with HOP-62 and with OVCAR-3 was > 100 µM (inactive) each time. Also, the GI50 in the assay on SNB-19 was > 100 µM (inactive); in the assay with RPMI-8226, > 100 µM (inactive); with BT-549, > 100 µM (inactive); with ACHN, > 100 µM (inactive); in the assay with DU-145, > 100 µM (inactive); in the assay on UACC-62, 63.7 µM (inactive). Besides, the GI50 with SN12C, with Malme-3M, with SR, in the assay on CCRF-CEM, in the assay with SF-295 and with MCF7 was > 100 µM (inactive) each time.

The record behind these values is ChEMBL document CHEMBL1201862, “PubChem BioAssay data set” (2004).
